In patent US11161884B2 (SAVID THERAPEUTICS INC., priority 2014, dated 2021):

Experiments:
V2122 [1] = biological target: T1, V2122 (Streptomyces avidinii, UniProt P22629, E125D/E140N/N47D/N73G/R108K/R127K/S51D/S69N/Y107S/Y46S); assay: ITC binding analysis of V2122 and compounds; conditions: 25 μM V2122, PBS, 25° C.
T1 construct: T7-Tag; made in house
Protocol: Microcal iTC200 (MicroCal, Northampton, Mass.) was used for the measurement.
For the measurement, concentration of the stock solutions was adjusted to a ten-fold concentration of V2122 to be measured. Into a cell of a calorimeter, 25 μM of V2122 was placed, and each solution was added dropwise at a stirring speed of 1000 rpm at 25° C. Obtained data was analyzed using ORIGIN, and the titration curve was fitted based on the one-site binding isotherm.

V2122 [2] = biological target: T1, V2122; assay: SPR analysis of affinity between V2122 and compound; assay type: binding
Protocol: Interaction of V2122, which is a LISA314 modified protein purified as described above, with Compound C was investigated by surface plasmon resonance (SPR). More specifically, using Biacore T200 (GE Healthcare BioScience Corp.) as a measuring instrument, and Sensor Chip NTA (GE Healthcare BioScience Corp.) as a sensor chip, the protein was immobilized on the sensor chip by way of His-Tag having been fused to the core protein. The running buffer was prepared using HBS-P(+), as described in the manual. A two-fold dilution series was prepared in nine steps by diluting a 1600 nM solution using the running buffer. The affinity was measured in the kinetics mode, and acquired data was subjected to equilibrium analysis using Biacore T200 Evaluation Software to determine the affinity.

DLD1 tumor = assay: In vivo imaging, DLD1 heterotransplantation model; set-up: species or system nude mice; conditions: pre-mixed with the antibody, intravenous
Protocol: The thus purified anti-epiregulin scFv-V2122 was mixed with Psyche F-IRDye 800 (Compound 44 in Example) dissolved in DMSO (final concentration was ten-fold molar concentration), and the mixture was incubated on ice for 10 minutes. The buffer was then replaced with Japanese Pharmacopoeia physiological saline (Otsuka Pharmaceutical Co., Ltd.) using Zeba Spin Desalting Column (Thermo Fisher Scientific Inc.) and was stored under cooling. Epiregulin IgG was labeled using ICG Labeling Kit-NH2 (Dojindo Laboratories).
Suspension liquid of human colorectal cancer-derived DLD1 cell and Matrigel Matrix (Corning) were mixed in a ratio of 1:1 (5×10^6 cells/0.1 mL), and 0.1 mL of the mixed liquid was administered subcutaneously in the left side of 5 to 6-week-old female nude mice (Sankyo Labo Service Corporation, Inc.). The mice were bred for several weeks to produce tumor. One week before imaging, the feed was switched to a low fluorescence feed (iVid #1, Oriental Yeast Co., Ltd.) and the breeding was continued. […]
Anti-epiregulin scFv-V2122 antibody (25 μg, 50 μg, 100 μg) preliminarily labeled with fluorescence by allowing it to react with Psyche F-IRDye 800 (Compound 44 in Example), or fluorescent-labeled epiregulin IgG (50 μg) was intravenously administered to nude mice having established DLD1 tumor. […]

[3] = system: human Burkitt lymphoma Ramos tumor; assay: In vivo imaging, Ramos heterotransplantation model; set-up: species or system nude mice; conditions: pre-mixed with the antibody, intravenous
Protocol: The thus purified Rituximab-scFv-V2122 was preliminarily mixed with Psyche F-IRDye 800 (Compound 44 in Example) dissolved in DMSO (final concentration is ten-fold molar concentration), and incubated on ice for 10 minutes. The buffer was then replaced with Japanese Pharmacopoeia physiological saline (Otsuka Pharmaceutical Co., Ltd.) using Zeba Spin Desalting Column (Thermo Fisher Scientific Inc.).
Ramos cell suspension and Matrigel Matrix (Corning) were mixed in a ratio of 1:1 (5×10^6 cells/0.1 mL), and 0.1 mL of the mixed liquid was administered subcutaneously in the left side of 5 to 6-week-old female nude mice (Sankyo Labo Service Corporation, Inc.). The mice were bred for several weeks to produce tumor. One week before imaging, the feed was switched to a low fluorescence feed (iVid #1, Oriental Yeast Co., Ltd.) and the breeding was continued. […]
Rituximab-scFv-V2122 antibody (25 μg, 50 μg, 100 μg), preliminarily labeled with fluorescence by reacting it with Psyche F-IRDye 800 (Compound 44 in Example), was intravenously administered to nude mice having established human Burkitt lymphoma Ramos. For investigation into accumulation in tumor, accumulation of IRDye 800 in the tumor was evaluated 2, 24 and 48 hours after the administration, using in vivo photo-imaging instrument Clairvivo OPT plus (Shimadzu Corporation) (FIG. 19).

Rituximab-scFv-V2122 = assay: Flow cytometry: binding of FITC-labeled compound to Rituximab-scFv-V2122 on RAMOS cell; assay type: cell-based; conditions: RAMOS cells pre-incubated with Rituximab-scFv-V2122; compound 3 nM, 10 nM, 30 nM
Protocol: The thus refolded and purified Rituximab-scFv-V2122 was evaluated regarding binding potential with RAMOS (human Burkitt lymphoma) cell (JCRB Cell Bank), which is a CD20 positive cell. More specifically, Rituximab-scFv-V2122 was diluted with PBS into three concentrations (0.05, 0.5, 5 μg/mL). 1×10^6 cells were placed in a 1.5 mL tube, centrifuged at 400×g for 4 minutes, and the supernatant was discarded to collect the cells. The collected cells were added with 100 μL of the diluted Rituximab-scFv-V2122, mixed well, and then incubated on ice for 30 minutes. The content was centrifuged again, the supernatant was discarded, added with 1 mL of PBS to wash the cells, and the cells were then collected. […] After the incubation, the content was centrifuged again, the supernatant was discarded, added with 1 mL of PBS to wash the cells, and the cells were then collected. The collected cells were suspended in 500 μL of PBS, and measured on a flow cytometer (guava easyCyte Single System; Merck Millipore).

T1 sequence (P22629 37-163 Y46S/N47D/S51D/S69N/N73G/Y107S/R108K/E125D/R127K/E140N): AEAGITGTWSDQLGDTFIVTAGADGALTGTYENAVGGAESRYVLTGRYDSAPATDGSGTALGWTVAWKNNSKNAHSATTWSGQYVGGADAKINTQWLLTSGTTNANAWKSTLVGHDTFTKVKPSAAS

`N=C1N[C@H]2[C@H](CS[C@H]2CCCCC(=O)NCCCCCC(=O)NCCNC(=O)CCCCCNC(=O)CCCC[C@@H]2SC[C@@H]3NC(=N)N[C@@H]32)N1` [Compound 7, (3aS,3a′S,4S,4′S,6aR,6a′R)-4,4′-(5,12,17,24-Tetraoxo-6,13,16,23-tetraazaoctacosane-1,28-diyl)bis[tetrahydro-1H-thieno[3,4-d]imidazole-2(3H)-iminium] di(2,2,2-trifluoroacetate)] was tested. Which “interaction with V2122 measured by ITC” value (V2122 [1]) did it give?
The value was “exothermic, suggesting a strong binding”.

And the Kd (V2122 [2])?
The Kd was 3.15 nM.

How did the “binding with anti-epiregulin scFv-V2122 antibody in vivo” value (DLD1 tumor) turn out when `COC(=O)[C@H](CCCCNC(=O)c1cc(NC(=O)NCCOCCOCCNC(=O)CCCCC[N+]2=C(/C=C/C3=C(Oc4ccc(S(=O)(=O)O)cc4)C(=C/C=C4/N(CCCCS(=O)(=O)O)c5ccc(S(=O)(=O)O)cc5C4(C)C)/CCC3)C(C)(C)c3cc(S(=O)(=O)[O-])ccc32)cc(C(=O)NCCCC[C@H](NC(=O)CCCC[C@@H]2SC[C@@H]3NC(=N)N[C@@H]32)C(=O)OC)c1)NC(=O)CCCC[C@@H]1SC[C@@H]2NC(=N)N[C@@H]21` [Compound 44, 1-(1-((3,5-Bis(((S)-5-(5-((3aS,4S,6aR)-2-iminohexahydro-1H-thieno[3,4-d]imidazole-4-yl)pentanamido)-6-methoxy-6-oxohexyl)carbamoyl)phenyl)amino)-1,12-dioxo-5,8-dioxa-2,11-diazaheptadecane-17-yl)-2-((E)-2-((E)-3-(2-((E)-3,3-dimethyl-5-sulfo-1-(4-sulfobutyl)indoline-2-ilidene)ethylidene)-2-(4-sulfophenoxy)cyclohex-1-ene-1-yl)vinyl)-3,3-dimethyl-3H-indol-1-ium-5-sulfonate] was run?
The value was “remain bound in vivo”.

What about the “binding with Rituximab-scFv-V2122 antibody in vivo” value [3] of the same compound?
The value was “remain bound in vivo”.

With `N=C1N[C@H]2[C@H](CS[C@H]2CCCCC(=O)NCCCCCC(=O)Nc2cc(NC(=O)CCCCCNC(=O)CCCC[C@@H]3SC[C@@H]4NC(=N)N[C@@H]43)cc(C(=O)NCCOCCOCCNC(=S)Nc3ccc4c(c3)C(=O)OC43c4ccc(O)cc4Oc4cc(O)ccc43)c2)N1` [FITC-labeled Compound B] as the compound, how does the “binding with Rituximab-scFv-V2122, shifts of fluorescence intensity” value (Rituximab-scFv-V2122) read?
Its value is “concentration-dependent shifts of fluorescence intensity were also confirmed”.

Which “interaction with V2122 measured by ITC” value (V2122 [1]) does the source give for `O=C(O)CCCC[C@@H]1SC[C@@H]2NC(=O)N[C@@H]21` [biotin, reference compound] here?
Its value is “non-interactive”.
